BindingDB's records for patent US9695170 (FibroGen Inc, 2017)

Molecular target: Egl nine homolog 1 (Homo sapiens, UniProt Q9GZT9)
Test: HIF-PH Assay
Conditions: pH 7.4
Description: Ketoglutaric acid α-[1-14C]-sodium salt, alpha-ketoglutaric acid sodium salt, and HPLC purified peptide may be obtained from commercial sources, e.g., Perkin-Elmer (Wellesley Mass.), Sigma-Aldrich, and SynPep Corp. (Dublin Calif.), respectively. […] For example, a HIF peptide for use in the HIF-PH assay is [methoxycoumarin]-[…]-amide. HIF-PH, e.g., HIF-PH2 (EGLN1), can be expressed in, e.g., insect Hi5 cells, and partially purified, e.g., through a SP ion exchange chromatography column. […] Reactions are initiated by addition of HIF-PH enzyme.

Sequence of Egl nine homolog 1 (Q9GZT9 whole entry): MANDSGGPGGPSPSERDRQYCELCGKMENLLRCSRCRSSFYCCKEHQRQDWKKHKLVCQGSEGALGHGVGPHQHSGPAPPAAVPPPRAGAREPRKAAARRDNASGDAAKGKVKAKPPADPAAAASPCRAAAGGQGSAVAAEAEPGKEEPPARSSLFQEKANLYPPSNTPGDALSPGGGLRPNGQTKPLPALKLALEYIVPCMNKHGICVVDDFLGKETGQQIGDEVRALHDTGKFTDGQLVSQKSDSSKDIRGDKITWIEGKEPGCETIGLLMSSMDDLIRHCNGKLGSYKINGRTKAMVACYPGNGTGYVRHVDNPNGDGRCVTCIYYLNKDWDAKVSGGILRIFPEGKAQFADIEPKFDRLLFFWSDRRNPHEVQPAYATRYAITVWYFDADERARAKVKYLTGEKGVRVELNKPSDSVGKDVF

Row | Structure (SMILES) | IC50 [µM]
1 | COC(=O)NCCNC(=O)c1ncc2ccc(=O)n(Cc3ccccc3)c2c1O [US9695170 96] | 137
2 | COC(=O)NCCNC(=O)c1nc(C#N)c2ccc(=O)n(Cc3ccccc3)c2c1O [US9695170 95] | 134
3 | Cc1ccncc1-c1nc(C(=O)NCCC(=O)O)c(O)c2cc(-c3ccccc3)c(=O)n(Cc3ccccc3)c12 [US9695170 179] | 176
